From US20190275010A1, “COMBINATION THERAPY COMPRISING A THIAZOLE AND A SECOSTEROID TO TREAT SKIN CONDITIONS” (Avexxin AS, priority 2016, published 2019)
“Also recorded” adds a separate entry of the source.

System: HaCaT cells
Experiment: Resazurin assay, HaCaT keratinocyte cell viability
Format: cell-based, human
Conditions: for effect on cell viability at 10 μM: single agent 10 μM, 24 hours (FIG. 1); for concentration at which the compound was found to reduce cell viability: single agent dose response, 24 hours treatment, resazurin (FIG. 1)
Description: The spontaneously immortalized, nontumorigenic skin keratinocyte cell line HaCaT was maintained in DMEM supplemented with 5% (v/v) FBS, 0.3 mg/ml glutamine and 0.1 mg/ml gentamicin at 37° C. with 5% CO2 in a humidified atmosphere. Subculture using trypsin-EDTA was performed every 3-4 days with split ratio of 1:3-1:4 to ensure actively proliferating cells.
Cells were seeded in 96 well plates in fully supplemented medium at a density of 3000 cells per well. Following 72 hour of cultivation, the cells were starved of serum in 0.25% FBS/DMEM overnight to halt proliferation, synchronize the cells and to increase cell sensitivity to treatment. Next day, the cells were treated with cPLA2α inhibitor Compound B, Compound A, vitamin D analogue Calcipotriol and corticosteroid hormone receptor agonist Betamethasone dipropionate for 24 hours. Resazurin was added next day according to the manufacturer's instruction (RnD Systems, UK) and left to incubate for […] in incubator at 37° C. with 5% CO2 in a humidified atmosphere before fluorescence was read at 544 nm excitation and 590 nm emission wavelength. The cells were observed under the microscope to evaluate possible morphology changes and signs of stress before addition of resazurin. The experiments were performed in series of 8 wells per treatment and repeated 3 times.

C=C1/C(=C\C=C2/CCC[C@]3(C)[C@@H]([C@H](C)/C=C/[C@@H](O)C4CC4)CC[C@@H]23)C[C@@H](O)C[C@@H]1O [Calcipotriol]
effect on cell viability at 10 μM: no signs of impairment in cell viability; also recorded: no toxicity | concentration at which the compound was found to reduce cell viability: 15 µM

CCCCCCCOc1ccc(OCC(=O)c2nc(C(=O)OC)cs2)cc1 [Compound A1]
effect on cell viability at 10 μM: no toxicity | concentration at which the compound was found to reduce cell viability: 20 µM
